Reference: patent publication US7700797B2, “Use of hydrolysis resistant organomodified silylated surfactants” (Momentive Performance Materials Inc., priority 2006, dated 2010)

Tests used:
[1] = Surface tension, Kruss surface tensiometer; assay type: physicochemical; conditions: 0.1 wt % in 0.005M NaCl water
Method: Surface tension was measured using a Kruss surface tensiometer, with a sand blasted platinum blade as the sensor. Solutions of the various components were prepared at 0.1 wt % in 0.005M NaCl water (deionized), as an equilibrium aid.

[2] = Spreading of 10 μL droplet on polystyrene Petri dishes; assay type: physicochemical; conditions: 30 seconds
Method: Spreading was determined by applying a 10 μL droplet, of surfactant solution to polystyrene Petri dishes (Fisher Scientific) and measuring the spread diameter (mm) after 30 seconds, at a relative humidity between 50 and 70% (at 22 to 25° C.). The solution was applied with an automatic pipette to provide droplets of reproducible volume. Deionized water that was further purified with a Millipore filtration system was used to prepare the surfactant solutions.

Row | Molecule | Surface Tension [1] [mN/m] | Spread Diameter ([2]; 0.05% surfactant) [mm] | Spread Diameter ([2]; 0.1% surfactant) [mm] | Spread Diameter ([2]; 0.3% surfactant) [mm] | Spread Diameter ([2]; 0.5% surfactant) [mm]
1 | C[Si](C)(C)C[Si](C)(C)CCCOCCOCCOCCOCCO [Product 6] | 22.5 | 40 | 45 | 53 | 47
2 | C[Si](C)(C)CC[Si](C)(C)CCCOCCOCCOCCOCCO [Product 7] | 22.7 | 30 | 42 | 48 | 49
3 | C[Si](C)(C)C[Si](C)(C)CCCOCCOCCOCCOCCOCCOCCOCCOCCOCCOCCOCCO [Product 8] | 27.7 |  | 7 |  | 7
4 | C[Si](C)(C)CC[Si](C)(C)CCCOCCOCCOCCOCCOCCOCCOCCOCCOCCOCCOCCO [Product 9] | 26.7 |  | 7 |  | 7
5 | Octylphenolethoxylate [OPE] | 31.8 |  | 9 |  | 10
